Results reported in patent US6469000B1, “1,3-diheterocyclic metalloprotease inhibitors” (The Procter & Gamble Co., priority 1996, dated 2002).

What was measured:
Assay type in all cases: in vivo
[1] = test system: human subject suffering from osteoarthritis; test: Example B: capsule given daily to a subject with osteoarthritis; details: capsule containing 70 mg of Example 3 daily for 5 years, 90 kg person
Procedure: A capsule for oral administration, according to the present invention, is made comprising:
A human subject weighing 90 kg (198 lbs), suffering from osteoarthritis, is treated by a method of this invention. Specifically, for 5 years, a capsule containing 70 mg of Example 3 is administered daily to said subject.

[2] = test system: patient suffering from chemical burns; test: Example D: topical composition applied to chemical burns; details: 0.20% w/v Compound of Example 3, topical, at each dressing change (b.i.d.)
Description: An topical composition for local administration, according to the present invention, is made comprising:
A patient suffering from chemical burns applies the composition at each dressing change (b.i.d.).

[3] = test system: human subject suffering from rheumatoid arthritis; test: Example A: tablets given orally to a subject with rheumatoid arthritis; details: tablet with 15 mg Example 9, three tablets per day orally for 2 years, 60 kg person
Procedure: A tablet composition for oral administration, according to the present invention, is made comprising:
A human subject weighing 60 kg (132 lbs), suffering from rheumatoid arthritis, is treated by a method of this invention. Specifically, for 2 years, a regimen of three tablets per day is administered orally to said subject.

SMILES | erosion/fibrillation of the articular cartilage, examined via orthoscopy [1] | scarring after chemical burns [2] | inflammation at the end of the treatment period [3] | mobility at the end of the treatment period [3]
COc1ccc(S(=O)(=O)N2CCCN(S(C)(=O)=O)C2C(=O)NO)cc1 (racemic) [Example 3, N-hydroxy 1-[(4-methoxyphenyl)sulfonyl]-3-[methylsulphonyl]-hexahydro-pyrimidine-2(R, S)-carboxamide] | no further advancement of erosion/fibrillation of the articular cartilage | substantially diminished | – | –
COc1ccc(S(=O)(=O)N2CC(C)(C)C(=O)N(Cc3ccccc3)C2C(=O)NO)cc1 (stereo not shown) [Example 9, N-hydroxy-1-[(4-methoxyphenyl)sulfonyl]-3-phenylmethyl-4-oxo-5,5-dimethyl-hexahydro-pyrimidin-2-carboxamide] | – | – | reduced inflammation | improved mobility without concomitant pain
